Here are results for 23 compounds from patent US20100197591A1, “4-AMINO-7,8-DIHYDROPYRIDO[4,3-d]PYRIMIDIN-5(6H)-ONE DERIVATIVES” (pfizer Inc, priority 2009, published 2010).

The target of one test is T1, Human full-length diacylglycerol:acylCoA acyltransferase 1 (DGAT-1) (Homo sapiens, UniProt O75907).
T1 construct: Human full-length diacylglycerol:acylCoA acyltransferase 1 (DGAT-1) was expressed in Sf9 insect cells; made in house; host or cells: Sf9 insect cells (baculovirus); crude membrane/microsome fraction
T1 sequence (O75907 1-488): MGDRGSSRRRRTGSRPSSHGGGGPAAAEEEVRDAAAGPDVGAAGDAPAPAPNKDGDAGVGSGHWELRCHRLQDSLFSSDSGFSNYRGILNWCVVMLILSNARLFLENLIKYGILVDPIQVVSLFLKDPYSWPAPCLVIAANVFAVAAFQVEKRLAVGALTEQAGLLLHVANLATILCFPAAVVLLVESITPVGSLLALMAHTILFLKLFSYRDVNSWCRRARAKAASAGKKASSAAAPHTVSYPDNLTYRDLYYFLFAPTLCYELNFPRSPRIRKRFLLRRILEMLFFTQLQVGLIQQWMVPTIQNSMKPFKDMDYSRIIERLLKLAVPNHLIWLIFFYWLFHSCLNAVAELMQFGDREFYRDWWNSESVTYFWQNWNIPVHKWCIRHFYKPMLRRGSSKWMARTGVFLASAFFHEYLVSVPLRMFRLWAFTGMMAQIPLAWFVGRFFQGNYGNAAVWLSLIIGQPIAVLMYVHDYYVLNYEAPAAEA
The test is described as follows: DGAT-1 Reduced Microsome Multidose Assay, G7329F Human IC50. In kind it is biochemical. The note with it: crude membrane fraction of Sf9 cells expressing human DGAT-1; [14C]decanoylCoA; apparent IC50, average where tested more than once. On the procedure:
(§1) Human full-length diacylglycerol:acylCoA acyltransferase 1 (DGAT-1) was expressed in Sf9 insect cells which are then lysed and a crude membrane fraction (105,000×g pellet) was prepared. The DGAT-1 gene is a human DGAT-1 gene described in J Biol Chem 273:26765 (1998) and U.S. Pat. No. 6,100,077.
(§2) In vitro inhibition of DGAT-1 was measured using a modification, further described below, of the assay methodology described in U.S. Pat. No. 6,994,956 B2.
(§3) The cells were cultured as follows. Sf9 cells (20 L) were infected with 4 mL of DGAT-1 Baculovirus Infected Insect Cells (BIIC) for 72 hours in a Wave Bioreactor System 20/50P (Wave Biotec/GE Healthcare).
(§4) Crude DGAT-1 microsomes were prepared as follows. Cell pellets were washed once with ice-cold Dulbecco's phosphate-buffered saline. Cells were collected in tabletop centrifuge (Beckman GS-6KR), 15 minutes, 2000×g, 4° C. Twenty (20) mL of ice-cold Microsome Buffer (MB) was added per 5 g of cell pellet. The suspension was passed through a microfluidizer 3 times (18K psi). The lysate was transferred to centrifuge tubes and centrifuged for 20 minutes at 5000×g (Beckman-Coulter, Inc. Allegra® 64R High-Speed Refrigerated Benchtop Centrifuge, F0650 rotor) at 4° C. The supernatant was transferred to ultracentrifuge tubes and centrifuged at 125,000×g for 1 hour in a Beckman Ti-45 rotor, 4° C. The supernatant fluid was discarded. The pellet was resuspended in 70 mL of MB by sonication. The microsome concentration was determined using Bio-Rad Protein DC Protein Assay. The microsomes were filter sterilized with a 0.22 μm filter. The samples were portioned, flash frozen and stored at −80° C.
(§5) The Microsome Buffer, used for microsome preparation, was prepared by conventional means and contained 125 mM sucrose, 3 mM imidazole, 0.2 μg/mL aprotinin, 0.2 μg/mL leupeptin and 5 mM dithiothreitol (Cleland's reagent), DGAT-1 activity was measured in 384-well format in a total assay volume of 25 μl that contained, Hepes buffer (50 mM, pH 7.5), MgCl2 (10 mM), bovine serum albumin (0.6 mg/ml), [^14C]decanoylCoA (20 μM, 58 Ci/mol) and membranes (25 μg/ml) into which 1,2 dioleoyl-sn-glycerol (75 μM) in acetone has already been incorporated. Inhibitors in DMSO were pre-incubated with membranes before initiating the DGAT-1 reaction by the addition of decanoylCoA. […] The DMSO concentration was 2.5%. The inhibitors were present at a range of eight concentrations to generate an apparent IC50 for each compound. The eight inhibitor concentration employed ranged from 10 μM to 3 nM (from high to low concentration). Specifically, the eight concentrations used were 10 μM, 3 μM, 1 μM, 300 nM, 100 nM, 30 nM, 10 nM and 3 nM.
(§6) Reaction mixtures were neutralized by the addition of 15 μl of tris(hydroxy-methyl)aminomethane (1M, pH 8.0) and then mixed by trituration with 37.5 μl of Microscint™-E (Perkin Elmer). Plates contents were allowed to partition for 15 to 30 min before ^14C was measured in a scintillation spectrometer (Wallac Microbeta Trilux 1450-030 liquid scintillation counter 12 detector in the top-count DPM mode). Percent inhibition of test compounds was computed as […].
(§7) Four separate assays were performed using 4 different methods of analysis. The method of analysis of Assay 1 was the same as Assay 4 (described above) except microsomes were utilized at 25 μg/mL instead of 5 μg/mL. The method of analysis of Assay 2 was the same as Assay 4 (described above) except eleven (11) concentrations of inhibitor were employed instead of eight (8). The method of analysis of Assay 3 was the same as Assay 2 except the compounds were serially diluted in a different laboratory.
(§8) Where this DGAT-1 inhibition assay was performed on a compound more than once, an average is provided for that compound.
As a reminder, the IC50 is the concentration that inhibits the measured activity by half. With `COc1nc(N)c2c(n1)CCN(c1ccc(Cl)cc1)C2=O` [Example 9F, 4-amino-6-(4-chlorophenyl)-2-methoxy-7,8-dihydropyrido[4,3-d]pyrimidin-5(6H)-one], the IC50 worked out at 747 nM. The same measure, in the same setting: then `COc1nc(N)c2c(n1)CCN(c1ccc(OC(C)C)cc1)C2=O` [Example 9G, 4-amino-6-(4-isopropoxyphenyl)-2-methoxy-7,8-dihydropyrido[4,3-d]pyrimidin-5(6H)-one], with 102 nM; and `COc1nc(N)c2c(n1)CCN(c1ccc(OCC3CC3)cc1)C2=O` [Example 9H, 4-amino-6-[4-(cyclopropylmethoxy)phenyl]-2-methoxy-7,8-dihydropyrido[4,3-d]pyrimidin-5(6H)-one], with 115 nM.

For the compound `COc1nc(N)c2c(n1)CCN(c1ccc(OCC(C)C)cc1)C2=O` [Example 9I, 4-amino-6-(4-isobutoxyphenyl)-2-methoxy-7,8-dihydropyrido[4,3-d]pyrimidin-5(6H)-one], the IC50 stood at 84.1 nM. For the compound `COc1nc(N)c2c(n1)CCN(c1ccc3nc[nH]c3c1)C2=O` [Example 9J, 4-amino-6-(1H-benzimidazol-6-yl)-2-methoxy-7,8-dihydropyrido[4,3-d]pyrimidin-5(6H)-one], the IC50 was determined as 1400 nM. The same measure, in the same setting: then `COc1nc(N)c2c(n1)CCN(c1ccc(C3(C)CCCO3)cc1)C2=O` (centres unmarked) [Example 9K, 4-amino-2-methoxy-6-[4-(2-methyltetrahydrofuran-2-yl)phenyl]-7,8-dihydropyrido[4,3-d]pyrimidin-5(6H)-one], with 63.2 nM; and `COc1nc(N)c2c(n1)CCN(c1ccc(CCC(F)(F)F)cc1)C2=O` [Example 9L, 4-amino-2-methoxy-6-[4-(3,3,3-trifluoropropyl)phenyl]-7,8-dihydropyrido[4,3-d]pyrimidin-5(6H)-one], with 77.4 nM. In the case of `COc1nc(N)c2c(n1)CCN(c1ccc(SC(C)(C)C)cc1)C2=O` [Example 9N, 4-amino-6-[4-(tert-butylthio)phenyl]-2-methoxy-7,8-dihydropyrido[4,3-d]pyrimidin-5(6H)-one], the IC50 stood at 23.9 nM.

With `COc1nc(N)c2c(n1)CCN(c1ccc([S+]([O-])C(C)(C)C)cc1)C2=O` (centres unmarked) [Example 9O, 4-amino-6-[4-(tert-butylsulfinyl)phenyl]-2-methoxy-7,8-dihydropyrido[4,3-d]pyrimidin-5(6H)-one], the IC50 was 648 nM.

For the compound `COc1nc(N)c2c(n1)CCN(c1ccc(S(=O)(=O)C(C)(C)C)cc1)C2=O` [Example 9P, 4-amino-6-[4-(tert-butylsulfonyl)phenyl]-2-methoxy-7,8-dihydropyrido[4,3-d]pyrimidin-5(6H)-one], the IC50 amounted to 784 nM.

For the compound `COc1nc(N)c2c(n1)CCN(c1ccc(C(O)C(C)(C)C)cc1)C2=O` (centres unmarked) [Example 10A, 4-amino-6-[4-(1-hydroxy-2,2-dimethylpropyl)phenyl]-2-methoxy-7,8-dihydropyrido[4,3-d]pyrimidin-5(6H)-one], the IC50 was 58.8 nM. On to `COc1nc(N)c2c(n1)CCN(c1ccc(C(OC)C(C)(C)C)cc1)C2=O` (centres unmarked) [Example 10D, 4-amino-2-methoxy-6-[4-(1-methoxy-2,2-dimethylpropyl)phenyl]-7,8-dihydropyrido[4,3-d]pyrimidin-5(6H)-one], for which the half-maximal inhibitory concentration (IC50) turned out to be 27.9 nM.

Regarding `CC(C)(C)c1ccc(N2CCc3ncnc(N)c3C2=O)cc1` [Example 11A, 4-amino-6-(4-tert-butylphenyl)-7,8-dihydropyrido[4,3-d]pyrimidin-5(6H)-one], the IC50 came out at 117 nM.

In another test the target is T1, Human full-length diacylglycerol:acylCoA acyltransferase 1 (DGAT-1). The test is described as follows: DGAT-1 Reduced Microsome Multidose Assay, G7829E Human IC50. In kind it is biochemical. Particulars: crude membrane fraction of Sf9 cells expressing human DGAT-1; [14C]decanoylCoA; terminated with 5 μl of 1.4% phosphoric acid instead of HCl; average where tested more than once. The protocol:
as §1, §2, §3, §4, §5, §6, §7, §8
Compound `COc1nc(N)c2c(n1)CCN(c1ccc(C(=O)C(C)(C)C)cc1)C2=O` [Example 1F, 4-amino-6-[4-(2,2-dimethylpropanoyl)phenyl]-2-methoxy-7,8-dihydropyrido[4,3-d]pyrimidin-5(6H)-one] displayed an IC50 of 192 nM. Consider `COc1nc(N)c2c(n1)CCN(c1cccc(C(C)(C)CO)c1)C2=O` [Example 1K, 4-amino-6-[3-(2-hydroxy-1,1-dimethylethyl)phenyl]-2-methoxy-7,8-dihydropyrido[4,3-d]pyrimidin-5(6H)-one], for which inhibition was half-maximal at 831 nM (IC50). On to `COc1nc(N)c2c(n1)CCN(c1ccc(C(C)(C)c3ncco3)cc1)C2=O` [Example 1L, 4-amino-2-methoxy-6-{4-[1-methyl-1-(1,3-oxazol-2-yl)ethyl]phenyl}-7,8-dihydropyrido[4,3-d]pyrimidin-5(6H)-one], for which the IC50 was 34.8 nM. As for `COc1nc(N)c2c(n1)CCN(c1ccc(C(C)(C)c3cnco3)cc1)C2=O` [Example 1M, 4-amino-2-methoxy-6-{4-[1-methyl-1-(1,3-oxazol-5-yl)ethyl]phenyl}-7,8-dihydropyrido[4,3-d]pyrimidin-5(6H)-one], inhibition was half-maximal at 11.3 nM (IC50). Compound `COc1nc(N)c2c(n1)CCN(c1ccc(C(C)(C)c3cc[nH]n3)cc1)C2=O` [Example 1N, 4-amino-2-methoxy-6-{4-[1-methyl-1-(1H-pyrazol-3-yl)ethyl]phenyl}-7,8-dihydropyrido[4,3-d]pyrimidin-5(6H)-one] had an IC50 of 31.9 nM. With `COc1nc(N)c2c(n1)CCN(c1ccc(CC(C)(C)O)cc1)C2=O` [Example 1S, 4-amino-6-[4-(2-hydroxy-2-methylpropyl)phenyl]-2-methoxy-7,8-dihydropyrido[4,3-d]pyrimidin-5(6H)-one], half-maximal inhibition (IC50) was put at 44.3 nM. In the case of `COc1nc(N)c2c(n1)CCN(c1ccc3c(c1)COC3(C)C)C2=O` [Example 1U, 4-amino-6-(1,1-dimethyl-1,3-dihydro-2-benzofuran-5-yl)-2-methoxy-7,8-dihydropyrido[4,3-d]pyrimidin-5(6H)-one], the IC50 was 229 nM. In the case of `COc1nc(N)c2c(n1)CCN(c1ccc(C3(O)CCCCC3)cc1)C2=O` [Example 1V, 4-amino-6-[4-(1-hydroxycyclohexyl)phenyl]-2-methoxy-7,8-dihydropyrido[4,3-d]pyrimidin-5(6H)-one], the IC50 turned out to be 113 nM. `CCC(O)(CC)c1ccc(N2CCc3nc(OC)nc(N)c3C2=O)cc1` [Example 1W, 4-amino-6-[4-(1-ethyl-1-hydroxypropyl)phenyl]-2-methoxy-7,8-dihydropyrido[4,3-d]pyrimidin-5(6H)-one] showed an IC50 of 34 nM. Compound `COc1nc(N)c2c(n1)CCN(c1ccc(C(C)(C)c3ccon3)cc1)C2=O` [Example 3B, 4-amino-6-[4-(1-isoxazol-3-yl-1-methylethyl)phenyl]-2-methoxy-7,8-dihydropyrido[4,3-d]pyrimidin-5(6H)-one] gave an IC50 of 55 nM.
